Data published in paper PMC6269653, “Stability and Antioxidant Activity of Semi-synthetic Derivatives of 4-Nerolidylcatechol” (Molecules, 2012).
“And” between values parts separate entries of the source, which are not always exact repeats. Equal entries are not always repeated. “Also recorded” adds a separate entry of the source. Where two headings read alike, the source gives them in different places. Marks after values point to notes of the source that are not given here.

Experiments:
[1] = system: leukemia cells (HL-60 strain); parameters: method as in PMID 19084293; details: read-out: IC50 growth of leukemia cells; cited from earlier work
Brine shrimp assay = experiment: Brine shrimp assay; parameters: species or system Artemia franciscana; details: Artemia franciscana (brine shrimp), in vivo, read-out: Toxicity Brine shrimp (Artemia franciscana) (LC50)
Artemia franciscana = experiment: Brine shrimp assay; details: in vivo
tumor cell lines = details: cited from earlier work
Plasmodium falciparum = system: Plasmodium falciparum; parameters: method as in PMID 17568942; details: cited from earlier work
Plasmodium berghei = details: cited from earlier work
rat brain homogenates = system: rat brain homogenates; parameters: method as in ref 8 = [8]; 8. De Freitas P.C.D. Atividade Antioxidante de Espécies Medicinais da Família Piperaceae: Pothomorphe umbellata (L.) Miq. e Piper regnelli (Miq.) C. DC Ph.D. Thesis University of São Paulo (USP) São P; details: inhibition of spontaneous lipoperoxidation; cited from earlier work
KB tumor cells = system: KB tumor cells; parameters: method as in PMID 10364848; details: cited from earlier work
human topoisomerase I = system: human topoisomerase I; parameters: method as in PMID 10364848; details: cited from earlier work
normal fibroblast cells = system: normal fibroblast cells; parameters: method as in PMID 19059332; details: cited from earlier work
[2] = system: 3T3L1 mouse embryonic fibroblast cell line; experiment: Cellular antioxidant activity (oxidation of DCFH-DA); assay type: cell-based; parameters: inhibition of the oxidation of DCFH-DA in 3T3L1 cells: concentration or dose not given beside the values; details: for inhibition of the oxidation of DCFH-DA in 3T3L1 cells: over the observation period of 60 min
Method: These tests evaluate the reducing effect of a given substance on the radical species formed in situ during these assays leading to a decrease in color versus controls that is measured spectrophotometrically. […] Thus, at a concentration of 250 µM, 4-NC inhibited DPPH• and ABTS+• by 97% and 95%, respectively. Mono-O-substituted 4-NC derivatives 2–5 inhibited ABTS+• by 89–93%. […] The antioxidant activity was also evaluated in mouse embryonic 3T3L1 fibroblasts. In this assay DCFH-DA (2',7'-dichlorofluorescein diacetate) is hydrolyzed by intracellular esterases and then oxidized by reactive oxygen species (ROS) to the fluorescent compound 2'-7'-DCF. An active antioxidant substance can inhibit the transformation of fatty acids to fatty acid hydroperoxides in the cell membranes and thereby inhibit the oxidation of DCFH-DA.
The antioxidant activity of 4-NC and semi-synthetic derivatives of 4-NC was evaluated on the 1st and 30th days after dissolving the substances in DMSO at a concentration of 10 mM and storage in a freezer at −20 °C. This experiment permitted the evaluation of the relative stability of the antioxidant activity of 4-NC, derivatives of 4-NC, BHT and BHA. Thus, cellular antioxidants were evaluated using the mouse embryonic fibroblast 3T3L1 cell line. […] The presence of mono-O or di-O,O substituent groups in the 4-NC derivatives can confer stability relative to 4-NC. Such chemical stability is highly desirable when contemplating the use of such substances in cosmetic and pharmaceutical formulations and foods. Here, 4-NC dissolved in DMSO lost more than 80% of its antioxidant activity after 30 days in the freezer.
Intracellular ROS production was detected using the non-fluorescent cell permeating compound, 2'7'-dichlorofluorescein diacetate (DCF-DA), as described by Wolfe and Liu. DCF-DA is hydrolyzed by intracellular esterases and then oxidized by hydroperoxides into the fluorescent compound, 2'-7'-DCF. 3T3-L1 cells were seeded at a density of 6 × 10^4 cells/well in a 96-well microplate in 100 μL of growth medium. 24 h after seeding, the growth medium was removed and the wells were washed with PBS. Then, a 10 μM solution of DCFH-DA dissolved in Hank’s buffer (100 μL) was added to wells and incubated for 30 min at 37 °C and 5% CO2. The cells were washed first with PBS (100 μL) then EEP (100 µL) and samples having different concentrations were added. The fluorescence was immediately measured at an excitation wavelength of 485 nm and emission wavelength of 520 nm over 60 min at 5 min intervals. Controls with/without DCFH-DA were prepared and subjected to analogous procedures. Quercetin, BHA and BHT were used as positive controls of antioxidant activity.

[3] = DPPH radical-scavenging activity; assay type: biochemical; details: compounds tested at 250 µM, mean ± standard deviation, n = 3
Method: The measurement of the scavenger activity of DPPH• was carried out according to the method of Molineux with modifications. Substances at 250 µM were added, at an equal volume, to the methanol solution of DPPH• ([…]). After 15 min at room temperature, the absorbance was recorded at 517 nm (sample abs). The experiment was repeated three times. BHT, BHA were used as controls. Values denote percentage of DPPH free radical inhibition. The antioxidant activity was calculated using the equation: % inhibition = 100 × (1 − sample abs/control abs).

[4] = ABTS radical-scavenging activity; assay type: biochemical; details: compounds tested at 250 µM, mean ± standard deviation, n = 3
Method: The ABTS assay used herein was based on the method of Re et al. with slight modifications. Substances at concentrations of 250 µM, BHT or BHA were added to dilute ABTS solution and the absorbance at […] was measured. The antioxidant activity was calculated using the equation: % inhibition = 100 × (1 − sample abs/control abs).

[5] = system: Mouse embryonic fibroblast cells (3T3L1 line); experiment: Cell viability assay (alamar blue); assay type: cell-based; details: alamar blue; ‡ >50 µg/mL; read-out: Toxicity Mouse embryonic fibroblast cells (3T3L1 line) (IC50)
Method: The cytotoxicity of 4-NC and derivatives of 4-NC 1–8 to mouse embryonic fibroblast line 3T3L1 was evaluated using alamar blue to measure cell survival/proliferation. The substances at different concentrations (12.5, 25 and 50 µM) were separately incubated with cells and the number of viable cells was counted after 24, 48 and 72 h. […] O,O-Dibenzyl 4-NC (1) was not active (i.e. not toxic to A. franciscana) in the brine shrimp assay (Table 1).
3T3-L1 cells (mouse embryonic fibroblasts) were obtained from the Cell Bank of Rio de Janeiro, Brazil and were maintained in Dulbecco’s Modified Eagle Medium (DMEM) which was supplemented with 10% fetal bovine serum (FBS), penicillin (100 U/mL) and streptomycin (100 U/mL). The cells were incubated at 37 °C in a humidified atmosphere containing 5% of CO2.
The cytotoxicity of 4-NC and its semi-synthetic derivatives 1–8 to the 3T3L1 mouse embryonic fibroblast cell line fibroblasts was determined by the alamar blue method as described by Nakayama and co-workers. The alamar blue assay is a colorimetric assay involving the cellular reduction of resazurin to resorufin. Briefly, adherent cells (5 × 10^3 cells/well) were grown in 96-well tissue culture plates and exposed to substances (50, 25 and 12.5 μM) for 24, 48 and 72 h. After incubation, the alamar blue solution (10 µL of 0.4% alamar blue (resazurin) in PBS) was added and the cells were incubated for 2 h at 37 °C. Fluorescence was measured (excitation at 545 nm and emission at 595 nm) and expressed as a percentage of the cells in the control after background fluorescence was subtracted. The assays were performed in triplicate.

[6] = system: melanoma cell lines (SK-Mel-28, 103 and 147); parameters: method as in PMID 19059332; details: read-out: IC50 in vitro growth of melanoma cell lines; cited from earlier work
[7] = system: colon tumor cells (HCT-8 strain), central nervous system tumor cells (SF295 strain) and leukemia cells (HL-60 strain); parameters: method as in PMID 19084293; details: HCT-8, SF295 and HL-60; read-out: cytotoxicity IC50; cited from earlier work
[8] = system: human leukemia cells (HL-60 and CEM); parameters: method as in ref 1 = [1]; 1. Pinto A.C.S. Pessoa C.O. Costa-Lotufo L.V. Moraes M.O. Moraes M.E.A. Cavalcanti B.C. Nunomura S.M. Pohlit A.M. In vitro cytotoxicity of Pothomorphe peltata (L.) Miquel (Piperaceae), isolated 4-nero; details: cited from earlier work
[9] = † >500 µg/mL, 4 and 5 tested separately

Compound: C=CC(C)(CC/C=C(\C)CCC=C(C)C)c1ccc(OC)c(O)c1 (centres unmarked) [Compound 4, 1O-monomethyl derivative of 4-NC]
- IC50 [1]: 57.4 µM
- LC50 (Brine shrimp assay; [9]): 600 µM
- cytotoxic activity against Artemia franciscana in the brine shrimp assay (Artemia franciscana): weak cytotoxic activity

Compound: 4-nerolidylcatechol [Compound 4-NC]
- IC50 (tumor cell lines): 19.7 to 38.8 µM
- in vitro activity against Plasmodium falciparum (Plasmodium falciparum): high in vitro activity
- in vivo activity in Plasmodium berghei-infected mice (Plasmodium berghei): low in vivo activity; also recorded: little activity
- in vitro antioxidant activity relative to α-tocopherol (vitamin E) (rat brain homogenates): approximately 20 times
- toxicity in vitro to KB tumor cells (KB tumor cells): toxic
- inhibition of human topoisomerase I (human topoisomerase I): inhibits
- IC50 (normal fibroblast cells): 50 µM
- loss of antioxidant activity after storage ([2]; DMSO solution stored at −20 °C for 30 days, 3T3L1 cells): more than 80%
- inhibition of the oxidation of DCFH-DA in 3T3L1 cells [2]: ≥ 20%
- DPPH• (%) percentage of inhibition ([3]; 250 µM): 97% and 96.53 ± 0.50 ^a %
- ABTS (%) percentage of inhibition ([4]; 250 µM): 95% and 94.82 ± 0.22 ^a %
- IC50 [5]: 31.4 µM and 31.5 µM
- IC50 [6]: 20 to 40 µM

Compound: C=CC(C)(CC/C=C(\C)CCC=C(C)C)c1ccc(O)c(OC)c1 (centres unmarked) [Compound 5, 2O-monomethyl 4-NC derivative]
- LC50 (Brine shrimp assay; [9]): 1200 µM
- cytotoxic activity against Artemia franciscana in the brine shrimp assay (Artemia franciscana): weak cytotoxic activity
- IC50 [7]: 43.9 to 63.1 µM

Compound: C=CC(C)(CC/C=C(\C)CCC=C(C)C)c1ccc(OC(C)=O)c(OC(C)=O)c1 (centres unmarked) [Compound 7, O,O-diacetyl-4-nerolidylcatechol]
- in vivo inhibitory activity in P. berghei-infected mice (Plasmodium berghei; oral doses of 1–10 mg/kg/day (2.5–25 µmol/kg/day), 4-day suppressive test): significant in vivo inhibitory activity
- LC50 (Brine shrimp assay): 83 µM
- cytotoxic activity against Artemia franciscana in the brine shrimp assay (Artemia franciscana): moderately toxic
- inhibition of the oxidation of DCFH-DA in 3T3L1 cells [2]: ≥ 20%
- DPPH• (%) percentage of inhibition [3]: 6.36 ± 1.15 ^c %
- IC50 [8]: 15.5 to 15.6 µM
- ABTS (%) percentage of inhibition [4]: 8.60 ± 0.10 ^b %
